The values below come from US6723723B1, “Heterocyclic derivatives as inhibitors of factor Xa” (AstraZeneca, priority 1999, dated 2004).

Counter-ions that a name gives are not always drawn.

What is called melting point is the temperature of the solid-liquid transition. For `O=C(c1ccc(-c2ccncc2)nc1)N1CCN(S(=O)(=O)c2cc3cc(Cl)ccc3[nH]2)CC1` (as salt: hydrochloride) [Example 1, 1-(5-Chloroindol-2-ylsulphonyl)-4-[6-(4-pyridyl)nicotinoyl]piperazine], the melting point lay within 186 to 190 °C.
